Values after ≈ are worked out from the molar mass of the structure shown. Where two headings read alike, the source gives them in different places.

For data set [1] the following is noted: cited from earlier work.
The nature of data set [2]: Dissolution of free-form gemfibrozil in artificial saliva (USP <711> apparatus 2, HPLC). Format: physicochemical. The conditions noted are these: 4 hours; 600 mg in 900 mL pH 7.3 artificial saliva, 100 rpm, 37° C. (FIG. 1). The protocol:
USP <711> dissolution apparatus 2 (paddle method) was used. Dissolution medium was 900 mL of artificial saliva, pH 7.30. The temperature was maintained at 37° C. The paddles were rotated at 100 RPM. Six-hundred milligrams of gemfibrozil was added into each vessel at t=0. Samples aliquots of 2 mL were taken at 0.25, 0.5, 1, 2, 3, and 4 hours and filtered immediately using a 0.45 μm Nylon membrane syringe filter, whereby the filtrate was diluted at a 1:1 ratio with methanol and then vortexed. Samples were analyzed by HPLC.

A further data set can be described thus: physchem. The conditions noted are these: pH 7.3, fassgf or other biorelevant, thermodynamic from solid.

Experimental for physchem: The solution was then mixed by vortexing or sonicating, until complete dissolution was observed.
Kinetic Solubilities/Visual Solubility Assessment—Weighed samples were treated with aliquots of solvent at ambient temperature unless otherwise indicated. Samples were typically sonicated between additions to facilitate dissolution. Complete dissolution was observed through visual inspection. Solubilities were calculated based on the total amount of solvent added to achieve complete dissolution and may be greater than the value reported due to incremental solvent addition and the inherent kinetics of dissolution. […] These values are approximate. These values may also over-represent the amount of solvent required given that solvent was added incrementally. Approximately 10 mg of gemfibrozil salt was weighed into a vial. Artificial saliva was added to the vial until complete dissolution was observed. Each volume addition was followed by vortex mixing or sonication and observation on the presence of solids was noted.
Solubility descriptors were used as follows—Practically insoluble refers to a compound that is soluble at less than 0.1 mg/ml in solution. […] Slightly soluble, refers to a compound that is soluble in an aqueous solution from 1 mg/ml to 10 mg/ml. Sparingly soluble, refers to a compound that is soluble in an aqueous solution from 10 mg/ml to 30 mg/ml. […]

On to `Cc1ccc(C)c(OCCCC(C)(C)C(=O)O)c1` [Free Form, 5-(2,5-dimethylphenoxy)-2,2-dimethyl-pentanoic acid], for which the solubility was approximately 16 mg/mL (≈ 63.9 mM) in data set [1] (in DMSO); “approximately 0.5 mg/mL” in data set [1] (in a 1:1 solution of ethanol:PBS); “approximately 30 mg/ml” in data set [1] (in ethanol); “approximately 0.03 mg/ml” in data set [1] (in water); less than 1100 µg/mL in “physchem”. In addition, in data set [2], the “average % of free-form gemfibrozil dissolved” value is 78%.

As usually defined, the solubility is the dissolved amount per volume that the medium holds.
